Where “and” joins values, the source holds several entries; their conditions need not be identical. Equal values may be shown once.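 All cell lines were grown in 96-well plates and treated with compound for 48 hours. GI50 is the concentration that inhibits growth by half. TGI marks complete inhibition of growth.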
Key:
Test in all cases: DTP human tumour cell line panel, 48 h
ACHN renal = system: ACHN renal
DU-145 prostate = system: DU-145 prostate
EKVX NSCLC = system: EKVX NSCLC
K-562 leukemia = system: K-562 leukemia
MOLT-4 leukemia = system: MOLT-4 leukemia
OVCAR-4 ovarian = system: OVCAR-4 ovarian
SK-MEL-2 melanoma = system: SK-MEL-2 melanoma
T-47D breast = system: T-47D breast
NCI-H226 lung = system: NCI-H226 lung
MCF7 breast = system: MCF7 breast

Structure (SMILES) | GI50 (ACHN renal) | TGI (ACHN renal) | GI50 (DU-145 prostate) [nM] | TGI (DU-145 prostate) [µM] | GI50 (EKVX NSCLC) [nM] | TGI (EKVX NSCLC) [µM] | GI50 (K-562 leukemia) [nM] | TGI (K-562 leukemia) [µM] | GI50 (MOLT-4 leukemia) [µM] | TGI (MOLT-4 leukemia) [µM] | GI50 (OVCAR-4 ovarian) [nM] | TGI (OVCAR-4 ovarian) | GI50 (SK-MEL-2 melanoma) [nM] | TGI (SK-MEL-2 melanoma) [µM] | GI50 (T-47D breast) [nM] | TGI (T-47D breast) [µM] | TGI (NCI-H226 lung) | GI50 (MCF7 breast) [nM] | TGI (MCF7 breast) [µM] | GI50 (NCI-H226 lung) [nM]
O=C1c2ccc3c4c(ccc(c24)C(=O)N1CCNCc1ccccc1)C(=O)N(CCNCc1ccccc1)C3=O | 3190 nM | 13.5 µM | 2760 | 11.4 | 2030 | 6.02 | 365 | > 100 | 3.96 | > 100 | 1410 | 2.71 µM | 2230 | 5.81 | 1640 | 3.57 | – | – | – | –
CCOC(=O)C(=O)C(C#N)c1ccc(Cl)cc1 (configuration not stated) | – | > 100 µM | – | – | – | > 100 | – | > 100 | – | > 100 | – | > 100 µM | – | > 100 | – | – | > 100 µM | – | – | –
Cc1cc(Cl)cc2c1NC(=O)C2(O)C(C(=O)c1ccccc1)c1ccccc1 (configuration not stated) | 43000 nM and 18800 nM | > 100 µM and 40.6 µM | – | – | – | > 100 | – | > 100 | – | 70.9 | – | > 100 µM and 40 µM | – | > 100 | – | – | > 100 µM and 58.3 µM | – | – | –
CN(C)C1CN(C(=O)c2cc(-c3ccc4ncnc(N5CCc6cc(F)c(Cl)cc65)c4c3)cnc2N)C1 | 443 nM | > 100 µM | 594 | > 100 | – | – | 860 | > 100 | – | – | – | – | 1090 | 3.77 | 299 | 5.52 | > 100 µM | 303 | > 100 | 986
Nc1c(C(=O)Nc2cccc(C(F)(F)F)c2)sc2nc3c(cc12)CCCCCC3 | 1850 nM | 4.46 µM | 2650 | 10.2 | – | – | 3650 | 20 | 11.1 | 35.1 | 1610 | 4 µM | 4350 | 18.2 | 1350 | 6.2 | 11.9 µM | 2440 | 11.2 | 1760
O=C(O)CCC1c2[nH]c3ccccc3c2CCN1Cc1ccccc1 (configuration not stated) | – | > 100 µM | – | – | – | > 100 | – | > 100 | – | > 100 | – | > 100 µM | – | > 100 | – | – | > 100 µM | – | – | –
O=C(CC1(O)C(=O)Nc2ccccc21)c1ccccc1O (configuration not stated) | – | > 100 µM | – | – | – | > 100 | – | > 100 | – | > 100 | – | > 100 µM | – | > 100 | – | – | > 100 µM | – | – | –
CCN(CC)CC(O)c1cc(-c2ccc(Cl)cc2)nc2c(C)c(Cl)ccc12 (configuration not stated) | 1630 nM | 3.03 µM | 1700 | 3.08 | 1460 | 2.9 | 1660 | 4.26 | – | – | 1900 | 3.35 µM | 2100 | 3.61 | 1590 | 3.12 | 3.18 µM | 1500 | 2.9 | 1650
COc1cc(C(=O)NN=C2c3ccccc3-c3ccccc32)cc(OC)c1OC | 4210 nM | 24.2 µM | 5340 | 32.8 | – | – | 829 | 26.2 | 5.12 | > 100 | 17500 | > 100 µM | 2840 | 12.7 | 3900 | 65.5 | 73.9 µM | 2280 | > 100 | 14800
N#Cc1cccc(C2C(=O)c3ccc(C(=O)c4ccc5c(c4)C(=O)N(c4ccc(Oc6ccc(N7C(=O)c8ccc(C(=O)c9ccc%10c(c9)C(=O)N(c9cccc(C#N)c9)C%10=O)cc8C7=O)cc6)cc4)C5=O)cc3C2=O)c1 (configuration not stated) | – | > 100 µM | – | – | – | > 100 | – | > 100 | – | > 100 | – | > 100 µM | – | > 100 | – | – | – | – | – | –
COCCn1c2c([n+](Cc3cnccn3)c1C)C(=O)c1ccccc1C2=O | 40 nM | 2.11 µM | < 10 | 0.019 | < 10 | 0.0162 | < 10 | 5.6 | < 0.01 | 0.034 | < 10 | 0.012 µM | < 10 | 0.0127 | 24.6 | 0.153 | 0.0293 µM | – | – | < 14.3
N#CCCN(c1ccc(C=O)cc1)S(=O)(=O)c1ccccc1 | – | > 100 µM | – | – | – | > 100 | – | > 100 | – | > 100 | – | > 100 µM | – | > 100 | – | – | > 100 µM | – | – | –
COc1ccc2nc3ccccc3c(NCCN(CCCl)CCCl)c2c1 | – | 2.53 µM | – | – | – | 8.02 | – | 4.92 | – | 0.758 | – | 3.14 µM | – | – | – | – | 4.74 µM | – | – | –
O=C(CC(=O)c1cccc([N+](=O)[O-])c1)C(=O)Nc1ccccc1 | – | > 100 µM | – | – | – | > 100 | – | > 100 | – | > 100 | – | > 100 µM | – | > 100 | – | – | > 100 µM | – | – | –
CN1C2(c3ccccc3)C(C(=O)c3ccccc3)=C(C(=O)c3ccccc3)C1(c1ccccc1)c1c(-c3ccccc3)sc(-c3ccccc3)c12 | – | > 100 µM | – | – | – | > 100 | – | > 100 | – | – | – | > 100 µM | – | – | – | – | > 100 µM | – | – | –
Cc1ccc(NC(=O)CC2SC(=Nc3ccc(Cl)cc3)NC2=O)cc1C (configuration not stated) | – | 29.6 µM | – | – | – | 31.4 | – | > 58.5 | – | 5.28 | – | 35.6 µM | – | 17.9 | – | – | > 64.3 µM | – | – | –
CCCCCCCCCCCCCCCCCC[S+](C)CC (configuration not stated) | 1330 nM | 2.96 µM | 1410 | 2.75 | 1950 | 4.31 | – | – | – | – | 1650 | 4.35 µM | – | – | 2360 | 18.8 | 7.58 µM | 1860 | 4.99 | 2080
Cc1ccccc1-n1c(CCl)nc2ccc(Br)cc2c1=O | – | 83.8 µM | – | – | – | 35 | – | – | – | 73.5 | – | 31.8 µM | – | 32.5 | – | – | 28.4 µM | – | – | –
COc1cc(N2CCC(N)CC2)ccc1Nc1ncc(Cl)c(-c2c[nH]c3ccccc23)n1 | 292 nM | 1.94 µM | 340 | 1.88 | – | – | 1580 | 5.03 | 1.4 | 4.86 | 235 | 3.66 µM | 230 | 0.982 | 1780 | 4.72 | 3.59 µM | 28.3 | 1.41 | 334

— PubChem BioAssay (NCI)
